The values that follow come from patent US9815836B2, “Macrocyclic compounds as IRAK1/4 inhibitors and uses thereof” (Merck Patent GmbH, priority 2015, dated 2017).

The structures appear in SMILES notation. Where two headings read alike, the source gives them in different places.

The target of one series is IRAK1 (Homo sapiens (Human), UniProt P51617). Briefly: IRAK1 enzymatic assay (ADP-Glo luminescence). Format: biochemical. As for the experimental part:
In this assay, IRAK1 hydrolyses ATP and autophosphorylates. Measurement of IRAK-1 inhibition is performed in 384-well format based on luminescence assay (ADP-Glo™ Kinase Assay from Promega). Purified human recombinant IRAK1 ([…]) and serial diluted compounds in DMSO (range of concentration from 10 μM to 0.5 nM) or controls (1% DMSO) are incubated for 15 minutes at RT in assay buffer containing 50 mM Hepes pH 7.0, Fatty acid-free BSA 0.1%, Dithiothreitol (DTT) 2 mM, MgCl2 10 mM, EGTA 0.5 mM, Triton X-100 0.01%. The kinase reaction is then initiated by the addition of ATP at a concentration of 1μM. After 2 hours of incubation at RT, the reaction is stopped and the unconsumed ATP depleted by the addition of ADP-Glo™ Reagent according to supplier instructions. After 40 minutes of incubation at RT, the Kinase Detection Reagent is then added to the assay plate according to supplier instructions. After 20 minutes of incubation at RT, the luminescence signal is measured with a luminometer (PerkinElmer Envision or equivalent reader).

For another series, the target named is IRAK4 (Homo sapiens (Human), UniProt Q9NWZ3). Briefly: IRAK4 enzymatic assay (ADP-Glo luminescence). Format: biochemical. The following applies: human purified recombinant His-TEV-IRAK4 (1-460), ATP 2 μM, STK1-biotin peptide 300 nM. How it is done: IRAK4 is a human purified recombinant enzyme (His-TEV-IRAK4 (1-460)).
IRAK4, sequence (Q9NWZ3 whole entry): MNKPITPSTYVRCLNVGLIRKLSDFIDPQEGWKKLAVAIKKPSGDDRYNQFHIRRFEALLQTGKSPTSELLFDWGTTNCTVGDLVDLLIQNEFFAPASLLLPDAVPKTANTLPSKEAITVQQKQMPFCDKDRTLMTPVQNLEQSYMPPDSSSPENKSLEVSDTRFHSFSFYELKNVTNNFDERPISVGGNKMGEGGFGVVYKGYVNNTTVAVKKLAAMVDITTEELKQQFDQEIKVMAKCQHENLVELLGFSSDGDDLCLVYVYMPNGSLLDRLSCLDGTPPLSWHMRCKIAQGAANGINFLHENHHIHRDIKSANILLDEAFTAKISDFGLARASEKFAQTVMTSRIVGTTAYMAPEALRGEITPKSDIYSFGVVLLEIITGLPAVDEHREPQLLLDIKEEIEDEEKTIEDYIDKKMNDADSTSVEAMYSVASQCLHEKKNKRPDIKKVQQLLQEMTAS
In this assay, IRAK4 hydrolyses ATP, autophosphorylates and phosphorylates a Serine/Threonine generic peptidic substrate (STK: 61ST1BLC from CisBio International). Measurement of IRAK-4 inhibition is performed in 384-well format based on a luminescence assay (ADP-Glo™ Kinase Assay from Promega). Purified human recombinant IRAK4 (0.3 μg/ml) and serial diluted compounds in DMSO (range of concentration from 10 μM to 0.5 nM) or controls (1% DMSO) are incubated for 15 minutes at RT in assay buffer containing 50 mM Hepes pH 7.0, Fatty acid-free BSA 0.1%, Dithiothreitol (DTT) 2 mM, MgCl2 10 mM, EGTA 0.5 mM, Triton X-100 0.01%, MnCl2 5 mM. The kinase reaction is then initiated by the addition of ATP (2 μM) and the peptidic substrate STK1-biotin peptide (300 nM). After 2 hours of incubation at RT, the reaction is stopped and the unconsumed ATP depleted by the addition of ADP-Glo™ Reagent according to supplier instructions. After 40 minutes of incubation at RT, the Kinase Detection Reagent is then added to the assay plate according to supplier instructions. After 20 minutes of incubation at RT, the luminescence signal is measured with a plate-reading luminometer (PerkinElmer Envision or equivalent reader).
On the technique in general: ADP-Glo first removes unused ATP, then detects ADP through luciferase.

[1] abbreviates: human purified recombinant His-TEV-IRAK1 (194-712), ATP 1 μM, read-out: IRAK1 IC50.

IRAK1, sequence (P51617 194-712): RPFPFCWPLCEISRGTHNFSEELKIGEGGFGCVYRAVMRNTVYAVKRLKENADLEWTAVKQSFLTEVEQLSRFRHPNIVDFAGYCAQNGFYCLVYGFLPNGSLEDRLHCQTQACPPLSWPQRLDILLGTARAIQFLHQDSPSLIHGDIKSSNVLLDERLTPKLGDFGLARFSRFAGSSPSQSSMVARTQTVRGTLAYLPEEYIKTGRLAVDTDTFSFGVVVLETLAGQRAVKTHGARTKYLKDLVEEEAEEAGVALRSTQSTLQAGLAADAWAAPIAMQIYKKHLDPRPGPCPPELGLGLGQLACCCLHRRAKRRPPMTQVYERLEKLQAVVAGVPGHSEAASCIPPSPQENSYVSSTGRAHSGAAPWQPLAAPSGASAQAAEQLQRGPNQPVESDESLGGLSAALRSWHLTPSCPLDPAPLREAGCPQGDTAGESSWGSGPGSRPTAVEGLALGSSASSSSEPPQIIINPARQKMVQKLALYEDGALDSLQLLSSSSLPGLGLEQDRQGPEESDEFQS

As to `Cn1cc(NC(=O)c2cccc(-c3cnn(CCCl)c3)n2)c(C(=O)NC2CCNC[C@H]2O)n1` (stereo partly drawn), the ring closure, yield after HPLC (the molecule shown is the open-chain precursor, multicomponent bond, 20-membered ring, Cs2CO3/KI, microwave, DMSO, 22.0 mM, 110.0 °C) came to 23.6%.

Regarding `O=C1Nc2cn(C3CCN(C(=O)C4CC4(F)F)CC3)nc2C(=O)NCCCCCCn2cc(cn2)-c2cccc1n2` (stereo not drawn) [Compound 18, 16-[1-(2,2-difluorocyclopropanecarbonyl)piperidin-4-yl]-4,5,12,15,16,19,25-heptaazatetracyclo[19.3.1.1^2,^5.0^1^4,^1^8]hexacosa-1(24),2(26),3,14,17,21 (25),22-heptaene-13,20-dione], the half-maximal inhibitory concentration (IC50) is 100 to 1000 nM at IRAK1 and less than 100 nM at IRAK4.

As for `O=C1Nc2cn(C3CCN(C(=O)NC4CC4)CC3)nc2C(=O)NCCCCCCn2cc(cn2)-c2cccc1n2` [Compound 19, N-cyclopropyl-4-{13,20-dioxo-4,5,12,15,16,19,25-heptaazatetracyclo[19.3.1.1^2,^5.0^1^4,^1^8]hexacosa-1(24),2(26),3,14,17,21(25),22-heptaen-16-yl}piperidine-1-carboxamide], the IC50 was 100 to 1000 nM at IRAK1 and less than 100 nM on IRAK4.

`O=C1Nc2cn(C3CCOCC3)nc2C(=O)NCCOCCn2cc(cn2)-c2cccc1c2` [Compound 20, 15-(oxan-4-yl)-8-oxa-4,5,11,14,15,18-hexaazatetracyclo[18.3.1.1^2,^5.0^13,^1^7]pentacosa-1(23),2(25),3,13,16,20(24),21-heptaene-12,19-dione] showed a ring closure, yield after HPLC (from NCCOCCn1cc(-c2cccc(C(=O)Nc3cn(C4CCOCC4)nc3C(=O)[O-])c2)cn1, amide bond, 17-membered ring, BOP/DIEA, DMF, 20.7 mM) of 21.8%. Moreover, the IC50 on IRAK1 (setting [1]) and at IRAK4 was greater than 5000 nM in each case.

As to `Cn1cc2c(n1)C(=O)NC1CCN(CC1O)C(=O)OCCn1cc(cn1)-c1cccc(n1)C(=O)N2` (stereo not drawn) [Compound 21, 26-hydroxy-6-methyl-22-oxa-2,5,6,9,18,19,24,30-octaazapentacyclo[22.2.2.1^11,^1^5.1^1^6,^1^9.0^4,^8]triaconta-4,7,11(30),12,14,16(29),17-heptaene-3,10,23-trione], the IC50 was 1000 to 5000 nM against IRAK1 and 100 to 1000 nM at IRAK4.

As to `O=C1Nc2cn(C3CCN(CCO)CC3)nc2C(=O)NCCCCCCn2cc(cn2)-c2cccc1n2` [Compound 22, 16-[1-(2-hydroxyethyl)piperidin-4-yl]-4,5,12,15,16,19,25-heptaazatetracyclo[19.3.1.1^2,^5.0^1^4,^1^8]hexacosa-1 (24),2(26),3,14,17,21(25),22-heptaene-13,20-dione], the IC50 against IRAK1 is 100 to 1000 nM; at IRAK4 it was less than 100 nM.

As for `CN(C)CCN1CCC(n2cc3c(n2)C(=O)NCCCCCCn2cc(cn2)-c2cccc(n2)C(=O)N3)CC1` [Compound 23, 6-{1-[2-(dimethylamino)ethyl]piperidin-4-yl}-4,5,12,15,16,19,25-heptaazatetracyclo[19.3.1.1^2,^5.0^1^4,^1^8]hexacosa-1(24),2(26),3,14,17,21(25),22-heptaene-13,20-dione], the figures for the IC50 against IRAK1 and on IRAK4 were 100 to 1000 nM and less than 100 nM, respectively.

Regarding `O=C1Nc2cn(C3CCOCC3)nc2C(=O)NCCCCCCn2cc(cn2)-c2cccc1c2` [Compound 24, 16-(oxan-4-yl)-4,5,12,15,16,19-hexaazatetracyclo[19.3.1.1^2,^5.0^1^4,^1^8]hexacosa-1(24),2(26),3,14,17,21 (25),22-heptaene-13,20-dione], the IC50 on IRAK1 was 100 to 1000 nM; on IRAK4, less than 100 nM.

Take `Cn1cc2c(n1)C(=O)NCCC/C=C/Cn1cc(cn1)-c1cccc(n1)C(=O)N2` [Compound 25, (7E)-16-methyl-4,5,12,15,16,19,25-heptaazatetracyclo[19.3.1.1^2,^5.0^1^4,^1^8]hexacosa-1(24),2(26),3,7,14,17,21(25),22-octaene-13,20-dione]: the IC50 on IRAK1 (setting [1]) and at IRAK4 was less than 100 nM throughout.

Consider `Cn1cc2c(n1)C(=O)NCC/C=C\CCn1cc(cn1)-c1cccc(n1)C(=O)N2` [Compound 27, (8Z)-16-methyl-4,5,12,15,16,19,25-heptaazatetracyclo[19.3.1.1^2,^5.0^1^4,^1^8]hexacosa-1(24),2(26),3,8,14,17,21(25),22-octaene-13,20-dione], for which the half-inhibitory concentration (IC50) at IRAK1 is 100 to 1000 nM; on IRAK4, less than 100 nM.

Consider `Cn1cc2c(n1)C(=O)NCC/C=C/CCn1cc(cn1)-c1cccc(n1)C(=O)N2` [Compound 28, (8E)-16-methyl-4,5,12,15,16,19,25-heptaazatetracyclo[19.3.1.1^2,^5.0^1^4,^1^8]hexacosa-1(24),2(26),3,8,14,17,21(25),22-octaene-13,20-dione], for which the IC50 at IRAK1 was 100 to 1000 nM; on IRAK4 it was less than 100 nM.

Regarding `Cn1cc2c(n1)C(=O)NC/C=C/CCCn1cc(cn1)-c1cccc(n1)C(=O)N2` [Compound 29, (9E)-16-methyl-4,5,12,15,16,19,25-heptaazatetracyclo[19.3.1.1^2,^5.0^1^4,^1^8]hexacosa-1(24),2(26),3,9,14,17,21(25),22-octaene-13,20-dione], the concentration for half-maximal inhibition (IC50) at IRAK1 was 100 to 1000 nM; at IRAK4, less than 100 nM.

As to `Cn1cc2c(n1)C(=O)NC/C=C\CCCn1cc(cn1)-c1cccc(n1)C(=O)N2` [Compound 30, (9Z)-16-methyl-4,5,12,15,16,19,25-heptaazatetracyclo[19.3.1.1^2,^5.0^1^4,^1^8]hexacosa-1(24),2(26),3,9,14,17,21(25),22-octaene-13,20-dione], the IC50 against IRAK1 is 100 to 1000 nM; on IRAK4, less than 100 nM.

On to `Cn1cc2c(n1)C(=O)NCC(O)C(O)CCCn1cc(cn1)-c1cccc(n1)C(=O)N2` (stereo not drawn) [Compound 31, 9,10-dihydroxy-16-methyl-4,5,12,15,16,19,25-heptaazatetracyclo[19.3.1.1^2,^5.0^1^4,^1^8]hexacosa-1(24),2(26),3,14,17,21(25),22-heptaene-13,20-dione], for which the concentration for half-maximal inhibition (IC50) on IRAK1 is 100 to 1000 nM; on IRAK4 it was less than 100 nM.

As to `Cn1cc2c(n1)C(=O)NCCCC(O)C(O)Cn1cc(cn1)-c1cccc(n1)C(=O)N2` (stereo not drawn) [Compound 32, 7,8-dihydroxy-16-methyl-4,5,12,15,16,19,25-heptaazatetracyclo[19.3.1.1^2,^5.0^1^4,^1^8]hexacosa-1(24),2(26),3,14,17,21(25),22-heptaene-13,20-dione], the half-inhibitory concentration (IC50) is 100 to 1000 nM against IRAK1 and less than 100 nM on IRAK4.

For `Cn1cc2c(n1)C(=O)NCCC(O)C(O)CCn1cc(cn1)-c1cccc(n1)C(=O)N2` (stereo not drawn) [Compound 33, 8,9-dihydroxy-16-methyl-4,5,12,15,16,19,25-heptaazatetracyclo[19.3.1.1^2,^5.0^1^4,^1^8]hexacosa-1(24),2(26),3,14,17,21(25),22-heptaene-13,20-dione], the IC50 is 100 to 1000 nM on IRAK1 and less than 100 nM on IRAK4.

As for `Cn1cc2c(n1)C(=O)NCCC/C=C\Cn1cc(cn1)-c1cccc(n1)C(=O)N2` [Compound 37, (7Z)-16-methyl-4,5,12,15,16,19,25-heptaazatetracyclo[19.3.1.1^2,^5.0^1^4,^1^8]hexacosa-1(24),2(26),3,7,14,17,21(25),22-octaene-13,20-dione], the IC50 against IRAK1 is 100 to 1000 nM; at IRAK4, less than 100 nM.

For `Cn1cc2c(n1)C(=O)NCCCC#CCn1cc(cn1)-c1cccc(n1)C(=O)N2` [Compound 38, 16-methyl-4,5,12,15,16,19,25-heptaazatetracyclo[19.3.1.1^2,^5.0^1^4,^1^8]hexacosa-1(24),2(26),3,14,17,21 (25),22-heptaen-7-yne-13,20-dione], the IC50 on IRAK1 (setting [1]) and at IRAK4 was less than 100 nM throughout.

By IC50 is commonly meant the concentration that inhibits the measured activity by half.
